IC50 data for 22 compounds are collected here from patent publication US12172990B2 (Constellation Pharmaceuticals, Inc., priority 2018, dated 2024).

The target in assay [1] is human TREX2 (residues M44-A279) (Homo sapiens (Human), UniProt Q9BQ50). Briefly: TREX2 Biochemical Assay (fluorescence assay measuring degradation of dsDNA substrate). Conditions: 2.5 nM TREX2, 60 nM dsDNA substrate, 25 minutes at room temperature. The procedure: Degradation of the dsDNA liberates free fluorophore to produce a fluorescent signal. Specifically, 7.5 μL of N-terminally His-Tev tagged human TREX2 (residues M44-A279, expressed in E. coli and purified in house) in reaction buffer (50 mM Tris (pH 7.4), 150 mM NaCl, 2 mM DTT, 0.1 mg/mL BSA, 0.01% (v/v) Tween-20 and 100 mM MgCl2) was added to a 384-well Black ProxiPlate Plus (Perkin Elmer) which already contained compound (150 nL) at varying concentrations as a 10 point dose-response in DMSO. To this was added 7.5 μL of dsDNA substrate (Strand A: 5′ TEX615/GCT AGG CAG 3′; Strand B: 5′ CTG CCT AGC/IAbRQSp (IDT)) in reaction buffer. Final concentrations were 2.5 nM TREX2, 60 nM dsDNA substrate in reaction buffer with 1.0% DMSO (v/v). After 25 minutes at room temperature, reactions were quenched by the addition of 5 μL of stop buffer (same as reaction buffer plus 200 mM EDTA). Final concentrations in the quenched reaction mixture were […] TREX2, 45 nM DNA and 50 mM EDTA in a volume of 20 μL. After a 5-minute incubation at room temperature, plates were read in a laser sourced Envision (Perkin-Elmer), measuring fluorescence at 615 nm following excitation w/570 nm light. IC50 values were calculated by comparing the measured fluorescence at 615 nm ratio relative to control wells pre-quenched w/stop buffer (100% inhibition) and no inhibitor (0% inhibition) controls as using non-linear least square four parameter fits and either Genedata or GraphPad Prism (GraphPad Software, Inc.).

Another assay deals with full length human TREX1 (Homo sapiens (Human), UniProt Q9NSU2). Put plainly: TREX1 Biochemical Assay (fluorescence assay measuring degradation of dsDNA substrate). Conditions: 150 pM TREX1, 60 nM dsDNA substrate, 25 minutes at room temperature. The procedure: Degradation of the dsDNA liberates free fluorophore to produce a fluorescent signal. Specifically, 7.5 μL of N-terminally His-Tev tagged full length human TREX1 (expressed in E. coli and purified in house) in reaction buffer (50 mM Tris (pH 7.4), 150 mM NaCl, 2 mM DTT, 0.1 mg/mL BSA, 0.01% (v/v) Tween-20 and 100 mM MgCl2 were added to a 384-well Black ProxiPlate Plus (Perkin Elmer) which already contained compound (150 nL) at varying concentrations as a 10 point dose-response in DMSO. To this was added 7.5 μL of dsDNA substrate (Strand A: 5′ TEX615/GCT AGG CAG 3′; Strand B: 5′ CTG CCT AGC/IAbRQSp (Integrated DNA Technologies)) in reaction buffer. Final concentrations were 150 pM TREX1, 60 nM dsDNA substrate in reaction buffer with 1.0% DMSO (v/v). After 25 minutes at room temperature, reactions were quenched by the addition of 5 μL of stop buffer (same as reaction buffer plus 200 mM EDTA). Final concentrations in the quenched reaction were 112.5 pM TREX1, 45 nM DNA and 50 mM EDTA in a volume of 20 μL. After a 5-minute incubation at room temperature, plates were read in a laser sourced Envision (Perkin-Elmer), measuring fluorescence at 615 nm following excitation w/570 nm light. IC50 values were calculated by comparing the measured fluorescence at 615 nm ratio relative to control wells pre-quenched w/stop buffer (100% inhibition) and no inhibitor (0% inhibition) controls as using non-linear least square four parameter fits and either Genedata or GraphPad Prism (GraphPad Software, Inc.).
Chain of full length human TREX1 (Q9NSU2 whole entry): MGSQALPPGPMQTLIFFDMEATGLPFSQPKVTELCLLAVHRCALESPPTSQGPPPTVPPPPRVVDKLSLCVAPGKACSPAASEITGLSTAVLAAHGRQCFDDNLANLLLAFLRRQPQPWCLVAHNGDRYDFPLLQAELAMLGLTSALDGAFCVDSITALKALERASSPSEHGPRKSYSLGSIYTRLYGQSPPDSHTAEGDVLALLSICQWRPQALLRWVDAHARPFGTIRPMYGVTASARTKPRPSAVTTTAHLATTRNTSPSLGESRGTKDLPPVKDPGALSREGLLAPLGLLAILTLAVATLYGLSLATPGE

Chain of human TREX2 (residues M44-A279) (Q9BQ50 whole entry, the tested form may be a part): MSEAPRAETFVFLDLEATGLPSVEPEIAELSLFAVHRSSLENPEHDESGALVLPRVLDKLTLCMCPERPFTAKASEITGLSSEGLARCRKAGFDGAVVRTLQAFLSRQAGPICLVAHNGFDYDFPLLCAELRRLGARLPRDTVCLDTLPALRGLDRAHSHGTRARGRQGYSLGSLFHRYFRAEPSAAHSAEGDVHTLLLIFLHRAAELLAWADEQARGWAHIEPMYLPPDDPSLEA

Consider `Cn1c(C2CCN2C(=O)OC(C)(C)C)nc(C(=O)Nc2cnoc2)c(O)c1=O` (centres unmarked) [Example 22, tert-butyl 2-(5-hydroxy-4-(isoxazol-4-ylcarbamoyl)-1-methyl-6-oxo-1,6-dihydropyrimidin-2-yl)azetidine-1-carboxylate], for which the IC50 in assay [1] fell in the range of 10000 to 100000 nM; at full length human TREX1 it was 1000 to 10000 nM.

For `CC(C)C(=O)N1CCCC(c2nc(C(=O)Nc3cnoc3)c(O)c(=O)n2C)C1` (centres unmarked) [Example 96, 5-hydroxy-2-(1-isobutyrylpiperidin-3-yl)-N-(isoxazol-4-yl)-1-methyl-6-oxo-1,6-dihydropyrimidine-4-carboxamide], the IC50 lay in the range of 10000 to 100000 nM in assay [1] and 100 to 1000 nM on full length human TREX1.

Take `CN(C)C(=O)[C@H]1CCCN1c1nc(C(=O)Nc2cnoc2)c(O)c(=O)n1C` [Example 110, (R)-2-(2-(dimethylcarbamoyl)pyrrolidin-1-yl)-5-hydroxy-N-(isoxazol-4-yl)-1-methyl-6-oxo-1,6-dihydropyrimidine-4-carboxamide]: the IC50 in assay [1] lay within 10000 to 100000 nM; on full length human TREX1, 100 to 1000 nM.

Turning to `Cn1c([C@H]2CCC[C@@H](NC(=O)c3ccc(Cl)c(Cl)c3)C2)nc(C(=O)Nc2cnoc2)c(O)c1=O` [Example 82, 2-((1S,3R)-3-(3,4-dichlorobenzamido)cyclohexyl)-5-hydroxy-N-(isoxazol-4-yl)-1-methyl-6-oxo-1,6-dihydropyrimidine-4-carboxamide], the IC50 in assay [1] is 10000 to 100000 nM; against full length human TREX1 it was 1000 to 10000 nM.

In the case of `Cn1c(C2CCCN(C(=O)OC(C)(C)C)C2)nc(C(=O)Nc2cnoc2)c(O)c1=O` (centres unmarked) [Example 13, tert-butyl 3-(5-hydroxy-4-(isoxazol-4-ylcarbamoyl)-1-methyl-6-oxo-1,6-dihydropyrimidin-2-yl)piperidine-1-carboxylate], the results for the IC50 (in assay [1]; against full length human TREX1) were 10000 to 100000 nM and 100 to 1000 nM, respectively.

With `Cn1c(N2CCC[C@@H]2c2cccnc2)nc(C(=O)Nc2cnoc2)c(O)c1=O` [Example 102, (R)-5-hydroxy-N-(isoxazol-4-yl)-1-methyl-6-oxo-2-(2-(pyridin-3-yl)pyrrolidin-1-yl)-1,6-dihydropyrimidine-4-carboxamide], the concentration for half-maximal inhibition (IC50) was 10000 to 100000 nM in assay [1] and 100 to 1000 nM against full length human TREX1.

As for `CN(C)CCCC(=O)N1CCCC(c2nc(C(=O)Nc3cnoc3)c(O)c(=O)n2C)C1` (centres unmarked) [Example 60, 2-(1-(4-(dimethylamino)butanoyl)piperidin-3-yl)-5-hydroxy-N-(isoxazol-4-yl)-1-methyl-6-oxo-1,6-dihydropyrimidine-4-carboxamide], the IC50 in assay [1] fell in the range of 10000 to 100000 nM; against full length human TREX1 it was 1000 to 10000 nM.

Turning to `Cn1c(C(NC(=O)OCc2ccccc2)c2ccccc2)nc(C(=O)Nc2cnoc2)c(O)c1=O` (centres unmarked) [Example 23, benzyl ((5-hydroxy-4-(isoxazol-4-ylcarbamoyl)-1-methyl-6-oxo-1,6-dihydropyrimidin-2-yl)(phenyl)methyl)carbamate], the IC50 lay within 1000 to 10000 nM in assay [1] and 100 to 1000 nM at full length human TREX1.

For the compound `Cn1c(N2CCCC[C@H]2CCO)nc(C(=O)Nc2cnoc2)c(O)c1=O` [Example 106, (S)-5-hydroxy-2-(2-(2-hydroxyethyl)piperidin-1-yl)-N-(isoxazol-4-yl)-1-methyl-6-oxo-1,6-dihydropyrimidine-4-carboxamide], the IC50 fell in the range of 10000 to 100000 nM in assay [1] and 100 to 1000 nM against full length human TREX1.

Consider `Cn1c(C2CN(C(=O)OC(C)(C)C)C2)nc(C(=O)Nc2cnoc2)c(O)c1=O` [Example 19, tert-butyl 3-(5-hydroxy-4-(isoxazol-4-ylcarbamoyl)-1-methyl-6-oxo-1,6-dihydropyrimidin-2-yl)azetidine-1-carboxylate], for which the IC50 in assay [1] is above 100000 nM; against full length human TREX1, 1000 to 10000 nM.

On to `Cn1c(-c2cc(Cl)cc(Cl)c2)nc(C(=O)Nc2cnoc2)c(O)c1=O` [Example 30, 2-(3,5-dichlorophenyl)-5-hydroxy-N-(isoxazol-4-yl)-1-methyl-6-oxo-1,6-dihydropyrimidine-4-carboxamide], for which the IC50 lay within 1000 to 10000 nM in assay [1] and 100 to 1000 nM on full length human TREX1.

With `Cc1cc(-c2nc(C(=O)Nc3cnoc3)c(O)c(=O)n2C)cc(N2CCN(C)CC2)c1` [Example 33, 5-hydroxy-N-(isoxazol-4-yl)-1-methyl-2-(3-methyl-5-(4-methylpiperazin-1-yl)phenyl)-6-oxo-1,6-dihydropyrimidine-4-carboxamide], the IC50 in assay [1] fell in the range of 10000 to 100000 nM; on full length human TREX1 it was 100 to 1000 nM.

Consider `CNC(=O)c1cc(C)cc(-c2nc(C(=O)Nc3cnoc3)c(O)c(=O)n2C)c1` [Example 55, 5-hydroxy-N-(isoxazol-4-yl)-1-methyl-2-(3-methyl-5-(methylcarbamoyl)phenyl)-6-oxo-1,6-dihydropyrimidine-4-carboxamide], for which the IC50 is 1000 to 10000 nM in assay [1] and below 100 nM at full length human TREX1.

In the case of `Cn1c(N2CCC[C@H]2c2ccncc2)nc(C(=O)Nc2cnoc2)c(O)c1=O` [Example 103, (S)-5-hydroxy-N-(isoxazol-4-yl)-1-methyl-6-oxo-2-(2-(pyridin-4-yl)pyrrolidin-1-yl)-1,6-dihydropyrimidine-4-carboxamide], the IC50 in assay [1] lay within 10000 to 100000 nM; at full length human TREX1 it was 100 to 1000 nM.

With `Cn1c(-c2cnn(Cc3ccccc3)c2)nc(C(=O)Nc2cnoc2)c(O)c1=O` [Example 42, 2-(1-benzyl-1H-pyrazol-4-yl)-5-hydroxy-N-(isoxazol-4-yl)-1-methyl-6-oxo-1,6-dihydropyrimidine-4-carboxamide], the IC50 was 10000 to 100000 nM in assay [1] and 100 to 1000 nM on full length human TREX1.

With `Cn1c(N2CC[C@@H](C(N)=O)C2)nc(C(=O)Nc2cnoc2)c(O)c1=O` [Example 118, (R)-2-(3-carbamoylpyrrolidin-1-yl)-5-hydroxy-N-(isoxazol-4-yl)-1-methyl-6-oxo-1,6-dihydropyrimidine-4-carboxamide], the IC50 in assay [1] is 10000 to 100000 nM; on full length human TREX1 it was below 100 nM.

Turning to `COc1ccc(C(=O)N2CCCC(c3nc(C(=O)Nc4cnoc4)c(O)c(=O)n3C)C2)cc1` (centres unmarked) [Example 47, 5-hydroxy-N-(isoxazol-4-yl)-2-(1-(4-methoxybenzoyl)piperidin-3-yl)-1-methyl-6-oxo-1,6-dihydropyrimidine-4-carboxamide], the figures for the IC50 (in assay [1]; on full length human TREX1) were 1000 to 10000 nM and 100 to 1000 nM, respectively.

As for `Cn1c(N2CCC[C@@H]2c2ccccc2Cl)nc(C(=O)Nc2cnoc2)c(O)c1=O` [Example 124, (R)-2-(2-(2-chlorophenyl)pyrrolidin-1-yl)-5-hydroxy-N-(isoxazol-4-yl)-1-methyl-6-oxo-1,6-dihydropyrimidine-4-carboxamide], the IC50 was 1000 to 10000 nM in assay [1] and below 100 nM against full length human TREX1.

Consider `Cn1c(C2CCCN(C(=O)c3ccncc3)C2)nc(C(=O)Nc2cnoc2)c(O)c1=O` (centres unmarked) [Example 63, 5-hydroxy-2-(1-isonicotinoylpiperidin-3-yl)-N-(isoxazol-4-yl)-1-methyl-6-oxo-1,6-dihydropyrimidine-4-carboxamide], for which the IC50 in assay [1] lay in the range of 1000 to 10000 nM; against full length human TREX1 it was 100 to 1000 nM.

As to `Cc1cc(-c2nc(C(=O)Nc3cnoc3)c(O)c(=O)n2C)cc(N2CCOCC2)c1` [Example 31, 5-hydroxy-N-(isoxazol-4-yl)-1-methyl-2-(3-methyl-5-morpholinophenyl)-6-oxo-1,6-dihydropyrimidine-4-carboxamide], the IC50 fell in the range of 1000 to 10000 nM in assay [1] and 100 to 1000 nM against full length human TREX1.

For the compound `C[C@@H](Cc1ccccc1)c1nc(C(=O)Nc2cnoc2)c(O)c(=O)n1C` [Example 80, (S)-5-hydroxy-N-(isoxazol-4-yl)-1-methyl-6-oxo-2-(1-phenylpropan-2-yl)-1,6-dihydropyrimidine-4-carboxamide], the IC50 in assay [1] was 1000 to 10000 nM; against full length human TREX1, below 100 nM.

For the compound `Cn1c(C2CCC2)nc(C(=O)Nc2cnoc2)c(O)c1=O` [Example 2, 2-cyclobutyl-5-hydroxy-N-(isoxazol-4-yl)-1-methyl-6-oxo-1,6-dihydropyrimidine-4-carboxamide], the figures for the IC50 (in assay [1]; on full length human TREX1) were 10000 to 100000 nM and 100 to 1000 nM, respectively.

As a reminder, the IC50 is the concentration that inhibits the measured activity by half. Higher therefore signals weaker potency.
